The source of these data is patent publication US11959083B2, “Immunosuppression-reverting oligonucleotides inhibiting the expression of CD39” (Secarna Pharmaceuticals GmbH & Co. KG, priority 2016, dated 2024).

The target of one data set is T1, hCD39 (Homo sapiens, UniProt P49961).
T1 construct: endogenous in cells; host or cells: JIYOYE cells
T1 sequence (P49961 1-510): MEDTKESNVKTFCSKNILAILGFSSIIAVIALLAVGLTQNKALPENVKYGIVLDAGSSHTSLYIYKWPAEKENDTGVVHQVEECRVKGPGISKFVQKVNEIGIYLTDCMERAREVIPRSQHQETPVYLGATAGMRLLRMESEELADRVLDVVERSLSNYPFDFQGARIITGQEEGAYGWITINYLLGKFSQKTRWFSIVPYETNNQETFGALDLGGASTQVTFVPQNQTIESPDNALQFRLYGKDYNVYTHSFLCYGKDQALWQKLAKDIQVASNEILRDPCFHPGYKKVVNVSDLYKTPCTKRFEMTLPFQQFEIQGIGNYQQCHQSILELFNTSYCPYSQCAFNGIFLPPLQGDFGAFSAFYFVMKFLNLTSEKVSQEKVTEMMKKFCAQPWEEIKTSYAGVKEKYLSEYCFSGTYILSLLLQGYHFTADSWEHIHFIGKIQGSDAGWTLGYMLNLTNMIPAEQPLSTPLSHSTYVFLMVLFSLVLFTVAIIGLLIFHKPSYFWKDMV
Description: ATP degradation in JIYOYE cells after hCD39 knockdown (ATP Bioluminescence Assay). It counts as cell-based. The conditions noted are these: for Relative ATP levels in supernatants of JIYOYE cells 30 minutes after addition of ATP (vs. Medium control): 5 μM oligonucleotide 6 days or 20 μM ARL67156 1 h, 2 μM ATP added. The method, then:
FIG. 10A-10C depict effects of hCD39 knockdown on viability and ATP concentration in JIYOYE cells. JIYOYE cells were treated with the indicated antisense oligonucleotide A04040H (SEQ ID No.3) or neg1 for 6 days in total at 5 μM. Medium was replaced with fresh oligonucleotide-containing medium after 3 days and hCD39 protein knockdown efficacy was analyzed on day 6 by flow cytometry. Residual hCD39 expression and viability of oligonucleotide-treated cells is depicted compared to untreated cells (FIG. 10A-10B). After 6 days, 20 μM of the CD39 small molecular inhibitor ARL67156 trisodium salt was added to no ASO treated cells and incubated for 1 h at 37° C. Then, 2 μM of ATP was added to cells or cell culture medium without cells from each condition and ATP concentration of cell supernatants or cell culture medium was determined after 30 min using the ATP Bioluminescence Assay Kit (Roche) (FIG. 10C).
Adenosine is one major immunosuppressive molecule generated during ATP degradation by hCD39. ATP can be detected by an ATP Bioluminescence Assay (ATP Bioluminescence Assay Kit CLS II; Roche). JIYOYE cells were treated with 5 μM antisense oligonucleotide A04040H (SEQ ID No. 3) or the negative control oligonucleotide neg1 for 6 days (3+3). After 3 days, RPMI-1640 medium was replaced with fresh RPMI-1640 medium containing 5 μM of oligonucleotide. Protein knockdown efficacy (FIG. 10A) and viability (FIG. 10B) were analyzed after 6 days by flow cytometry. […] The same day, cells that were not treated with any antisense oligonucleotide were incubated for 1 hr at 37° C. with 20 μM of the CD39 small molecular inhibitor ARL67156 trisodium salt (TOCRIS). Then, 2 μM of ATP was added to cells or cell culture medium without cells derived from each condition and ATP concentration was measured in the cell supernatants or in cell culture medium after 30 min. […] Table 14 presents the effect of hCD39 knockdown on relative ATP levels in the cell culture supernatants of JIYOYE cells: […]

In a further data set the test system is hCD39 mRNA. Briefly: hCD39 mRNA knockdown efficacy screen in HDLM-2 cells (single dose, gymnotic delivery, QuantiGene Singleplex). It counts as cell-based, human. The conditions noted are these: 10 μM; for Mean hCD39 mRNA expression normalized to HPRT1 relative to untreated control = 1: first screening round; for Relative hCD39 mRNA expression (compared to non-treated cells): second screening round, normalized to HPRT1. In short, it runs like this: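 Antisense oligonucleotides given once at 10 μM without transfection reagent (gymnotic) to HDLM-2 or A-172 cells for 3 days. hCD39 mRNA measured by QuantiGene Singleplex, normalized to HPRT1 and expressed relative to untreated cells; triplicate means.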

Setting [1] is: JIYOYE cells, 5 μM, 6 days, 2 μM ATP, 30 min.

l = locked nucleic acid (LNA); d = 2'-deoxy (DNA)

In the case of “+C*+G*+T*T*T*A*G*G*C*T*A*T*G*T*A*+C*+T*+T (CGTTTAGGCTATGTACTT; chemistry not fully specified) [neg1, negative control antisense oligonucleotide not hybridizing with CD39, described in WO2014154843 A1, reference compound]”, the “Relative ATP levels in supernatants of JIYOYE cells 30 minutes after addition of ATP (vs. Medium control)” value in the data set with hCD39 turned out to be 0.19. Further, in the data set on hCD39 mRNA, the “influence on the expression of hCD39” value is recorded as “no negative influence on the expression of hCD39”. Moreover, in the data set with hCD39 mRNA (3 days), the “Mean hCD39 mRNA expression normalized to HPRT1 relative to untreated control = 1” value is 1.09 and the “Relative hCD39 mRNA expression (compared to non-treated cells)” value worked out at 1.09.
In the case of “+G*+T*+T*T*G*T*G*T*G*A*G*A*G*C*+T*+T (antisense GTTTGTGTGAGAGCTT; sugars from the 5' end l3 d11 l2, all phosphorothioate, methylation of C not given here) [A04040H]”, in the data set with hCD39, the “Relative ATP levels in supernatants of JIYOYE cells 30 minutes after addition of ATP (vs. Medium control)” value is 0.76. In the data set with hCD39 (setting [1]), the “ATP concentration compared to cells treated with ARL67156” value came out at 2 ×, the “ATP concentration compared to cells treated with neg 1” value is recorded as “about 4 ×” and the ATP degradation efficacy entry is “nearly abolished”. Moreover, in the data set with hCD39 mRNA (3 days), the “Mean hCD39 mRNA expression normalized to HPRT1 relative to untreated control = 1” value worked out at 0.08 and the “Relative hCD39 mRNA expression (compared to non-treated cells)” value stood at 0.06. Also, the “Residual hCD39 mRNA expression relative to untreated cells (set as 1)” value with hCD39 mRNA (3 days, third screening round) was determined as 0.01.
